{"source": "patent US11779567B2", "about": "“Method for optimizing 5-hydroxytryptamine function in the brain for therapeutic purposes” (Evecxia Therapeutics, Inc., priority 2021, dated 2023)", "assay": "Plasma escitalopram levels in Phase 1 study", "format": "in vivo, human", "settings": "for Escitalopram plasma levels, Average Day 21-23 / concentration at 21 day / concentration at 22 day / concentration at 23 day: 20 mg/day oral; for Escitalopram plasma levels, Average Day 21-23 / concentration at 7 day / concentration at 21 day / concentration at 22 day / concentration at 23 day: mean ± SEM; for concentration at 7 day / concentration at 21 day / concentration at 22 day / concentration at 23 day: both sexes, human, plasma; for concentration at 7 day: 10 mg/day, after 10 mg/day oral", "experimental": "Study Design. A Phase 1, randomized, double-blind, placebo-controlled, single ascending dose study was performed to evaluate the safety, tolerability and pharmacokinetics (PK) of 5-HTP solution for IV infusion when administered to healthy adults taking a selective serotonin reuptake inhibitor (SSRI), escitalopram, for 3 weeks. Study duration was 37±3 days. The total individual subject participation time was no more than 66 days including screening, dosing, and follow-up phases. The IV infusion duration was 24 h, dosing with 5-HTP solution for IV infusion (see Example 3, above) or placebo (0.9% saline).\nPre-treatment with escitalopram. All subjects received pretreatment with escitalopram for 3 weeks prior to and during the 24 h IV infusion. A supply of escitalopram was provided for self-administration at a dose of 10 mg/day for 7 days. On Day 7 subjects were evaluated for general health and tolerability of escitalopram. Escitalopram compliance confirmation was evaluated by taking a blood draw for escitalopram plasma level measurements and by monitoring pill count using a diary. On Day 7 the subjects received a supply of 20 mg escitalopram tablets and self-administered 20 mg/day until Day 20 when they were admitted to the impatient clinic. Escitalopram was co-administered orally on Day 21-23 by clinical staff. Escitalopram treatment was tapered from 20 mg/day to 10 mg/day after the end of the infusion and continued for 8 days.\nBioanalysis. Plasma samples for 5-HTP analysis were collected and stored at −80° C. Plasma samples for escitalopram analysis were collected and stored at −80° C. Plasma 5-HTP levels and plasma escitalopram levels were measured using standard liquid chromatography with tandem mass spectrometry (LC-MS-MS) methods. For 5-HTP analysis, plasma samples were collected at T=0, 1, 2, 3, 4, 5, 6, 8, 10, 12, 14, 22, 24, 26, 28, 30, 32, 36, and 48 hr. For escitalopram analysis, plasma samples were collected on Day 7, Day 21 (pre-infusion), Day 22 (end of infusion), and Day 23 (24 hr after end of infusion). Plasma escitalopram levels were averaged across days 21-23, during the time-period when subjects were admitted to the clinic and received 5-HTP solution for IV infusion or placebo.\nPK analysis of plasma escitalopram. Plasma escitalopram levels across Days 21-23 were averaged for each subject, and statistical analysis by one-way ANOVA for cohort differences executed using GraphPad Prism version 9.4.1.", "key": {"[1]": {"settings": "oral, Cohort 1 (5-HTP 1 mg/kg, Constant)"}, "[2]": {"settings": "oral, Cohort 2 (5-HTP 3 mg/kg, Constant)"}, "[3]": {"settings": "oral, Cohort 3 (5-HTP 3 mg/kg, Ramped)"}, "[4]": {"settings": "oral, 20 mg/day, Cohort 4 (5-HTP 2 mg/kg, Ramped)"}, "[5]": {"settings": "oral, 20 mg/day, Cohort 5 (5-HTP 1 mg/kg, Ramped)"}, "[6]": {"settings": "po, 20 mg/day, Cohorts 1-5 pooled, placebo infusion instead of 5-HTP, N=10"}}, "data": [{"smiles": "CN(C)CCC[C@@]1(c2ccc(F)cc2)OCc2cc(C#N)ccc21", "note": "[Escitalopram, escitalopram]", "values": [{"measurement": "Escitalopram plasma levels, Average Day 21-23", "setting": "Cohort 1 (5-HTP 1 mg/kg, Constant)", "value": "39.7 ± 8.9", "unit": "ng/mL"}, {"measurement": "Escitalopram plasma levels, Average Day 21-23", "setting": "Cohort 2 (5-HTP 3 mg/kg, Constant)", "value": "25.6 ± 6.5", "unit": "ng/mL"}, {"measurement": "Escitalopram plasma levels, Average Day 21-23", "setting": "Cohort 3 (5-HTP 3 mg/kg, Ramped)", "value": "39.1 ± 4.8", "unit": "ng/mL"}, {"measurement": "Escitalopram plasma levels, Average Day 21-23", "setting": "Cohort 4 (5-HTP 2 mg/kg, Ramped)", "value": "29.2 ± 6.2", "unit": "ng/mL"}, {"measurement": "Escitalopram plasma levels, Average Day 21-23", "setting": "Cohort 5 (5-HTP 1 mg/kg, Ramped)", "value": "24.4 ± 5.0", "unit": "ng/mL"}, {"measurement": "Escitalopram plasma levels, Average Day 21-23", "setting": "Cohorts 1-5 pooled, placebo infusion instead of 5-HTP, N=10", "value": "44.0 ± 8.2", "unit": "ng/mL"}, {"measurement": "average plasma escitalopram levels, range across treatment groups", "setting": "Days 21-23, 20 mg/day oral", "value": "24 to 44", "unit": "ng/mL"}, {"measurement": "concentration at 7 day", "setting": "[1]", "value": "19.3 ± 3.1", "unit": "ng/mL"}, {"measurement": "concentration at 7 day", "setting": "[2]", "value": "10.1 ± 1.5", "unit": "ng/mL"}, {"measurement": "concentration at 7 day", "setting": "[3]", "value": "17 ± 2.3", "unit": "ng/mL"}, {"measurement": "concentration at 7 day", "setting": "oral, Cohort 4 (5-HTP 2 mg/kg, Ramped)", "value": "14.2 ± 2.5", "unit": "ng/mL"}, {"measurement": "concentration at 7 day", "setting": "oral, Cohort 5 (5-HTP 1 mg/kg, Ramped)", "value": "11.4 ± 2.3", "unit": "ng/mL"}, {"measurement": "concentration at 21 day", "setting": "oral, 20 mg/day, Cohort 1 (5-HTP 1 mg/kg, Constant)", "value": "39.8 ± 12.3", "unit": "ng/mL"}, {"measurement": "concentration at 21 day", "setting": "oral, 20 mg/day, Cohort 2 (5-HTP 3 mg/kg, Constant)", "value": "22.5 ± 10.2", "unit": "ng/mL"}, {"measurement": "concentration at 21 day", "setting": "oral, 20 mg/day, Cohort 3 (5-HTP 3 mg/kg, Ramped)", "value": "43.5 ± 4.5", "unit": "ng/mL"}, {"measurement": "concentration at 21 day", "setting": "[4]", "value": "28.5 ± 5.8", "unit": "ng/mL"}, {"measurement": "concentration at 22 day", "setting": "[4]", "value": "28.8 ± 6.2", "unit": "ng/mL"}, {"measurement": "concentration at 23 day", "setting": "[4]", "value": "30.3 ± 7", "unit": "ng/mL"}, {"measurement": "concentration at 21 day", "setting": "[5]", "value": "21.7 ± 3.4", "unit": "ng/mL"}, {"measurement": "concentration at 22 day", "setting": "[5]", "value": "22.2 ± 4.7", "unit": "ng/mL"}, {"measurement": "concentration at 23 day", "setting": "[5]", "value": "29.2 ± 7.5", "unit": "ng/mL"}, {"measurement": "concentration at 22 day", "setting": "[1]", "value": "37.9 ± 7.3", "unit": "ng/mL"}, {"measurement": "concentration at 23 day", "setting": "[1]", "value": "41.6 ± 7.6", "unit": "ng/mL"}, {"measurement": "concentration at 22 day", "setting": "[2]", "value": "24.3 ± 5.7", "unit": "ng/mL"}, {"measurement": "concentration at 23 day", "setting": "[2]", "value": "30 ± 3.7", "unit": "ng/mL"}, {"measurement": "concentration at 22 day", "setting": "[3]", "value": "37.3 ± 5.9", "unit": "ng/mL"}, {"measurement": "concentration at 23 day", "setting": "[3]", "value": "36.6 ± 4.1", "unit": "ng/mL"}, {"measurement": "concentration at 7 day", "setting": "po, Cohorts 1-5 pooled, placebo infusion instead of 5-HTP, N=10", "value": "18.3 ± 3.1", "unit": "ng/mL"}, {"measurement": "concentration at 21 day", "setting": "[6]", "value": "43.3 ± 8.4", "unit": "ng/mL"}, {"measurement": "concentration at 22 day", "setting": "[6]", "value": "45.2 ± 9.1", "unit": "ng/mL"}, {"measurement": "concentration at 23 day", "setting": "[6]", "value": "43.5 ± 7.5", "unit": "ng/mL"}]}]}
